# Test results published in patent US5002969A, “Pharmaceutical compositions containing titanocene complexes and use of these complexes as cytostatic agents” (priority 1985, dated 1991).
# How the values were obtained:
# [1] = system: Colon 38 Carcinoma; assay: Activity against Colon 38 Carcinoma; format: in vivo, female B6 D2 F1 mice; conditions: day 15
# Procedure: (§1) The B16 melanoma and colon 38 carcinoma used were obtained from the NCI Liasion Office, Institut Jules Bordet, Brussels, Belgium and, for propagation, were kept as solid, subcutaneously growing tumor lines on male C57BL/6J mice. For testing, the tumors were transplanted to female B6 D2 F1 mice. All animals were kept under standard conditions (22°-23° C., tap water and altromin food ad libitum, 12-h light-dark rhythm).
# (§2) For tumor transplantation on day 0 of the testing experiments, solid tumors were removed from donor mice, minced with scissors and reduced to small particles. After suspension in twofold volumes of Hank's balanced salt solution, volumes of 0.3 ml were inoculated subcutaneously into the axillary region, resulting in the growth of solitary solid tumors.
# (§3) The test compounds were administered either as a single injection on day 1 or as three injections on days 1, 3 and 5, or as five injections on days 1, 3, 5, 7 and 9. The different doses applied and the animal distribution are recorded in table 4. The substances, dissolved or suspended in a DMSO-saline mixture (1/9=v/v), were always injected intraperitoneally. The concentrations were selected in such a manner that each mouse received a total volume of 0.4 to 0.5 ml. Control animals only obtained one, three or five injections of the DMSO-saline mixture (0.5 ml/animal) without drug addition.
# (§4) The number of deaths was recorded daily. Deaths occuring within 7 days (single injection), 11 days (three injections) or 15 days (five injections) after tumor transplantation were defined as deaths due to substance toxicity.
# (§5) In the case of B16 melonoma, the tumors were removed and weighed on day 10 for the single and three injections or on day 15 for the five injections. Colon 38 carcinomas were always evaluated on day 15 of the experiment.
# [2] = system: solid Sarcoma 180; assay: Activity against solid Sarcoma 180; conditions: for T/C / Tumor Weight: day 9; for Tumor Weight: mean ± SD
# Procedure: The sarcoma 180 used in the present study was obtained from the Deutsche Krebsforschungszentrum (Heidelberg, Germany). It was propagated as an intraperitoneally growing tumor line on female NMRI mice which were kept under standard conditions (altromin food and tap water ad libitum, 12-h dark-light rhythm).
# Antitumor testing was performed against sarcoma 180 in fluid ascitic as well as in solid, subcutaneously growing form. For testing against ascitic or solid sarcoma 180, the ascitic tumor of donor mice was harvested, diluted 1:3 (v:v) with saline and injected either into the peritoneal cavity or, subcutaneously, into the axillary region of female NMRI mice. Each animal obtained about 10^7 tumor cells. The day of tumor transplantation was defined as day 0 of the experiment.
# Before administration of the test compounds, samples corresponding to the applied doses were dissolved in DMSO, filled up with ninefold volumes of saline and applied to mice in volumes of 0.02 ml per g of body weight. The different doses were either given as a single injection on day 1 or as triple injections on days 1, 3 and 5. […] The untreated, tumor-bearing control animals only received injections of the DMSO/saline mixture (0.02 ml/g). Every day occuring deaths were noted. Deaths within 8 days after tumor transplantation were defined as toxic deaths due to substance toxicity. In the case of ascitic sarcoma 180, the parameters evaluated were the values of mean survival time (MST) and of increase in life span (ILS); the latter was calculated by relating the mean survival time of a treated group to that of the corresponding control group expressed as a percentage and by subtracting 100%. The key date for the evaluation of the experiment and for determining the number of surviving (cured) animals was day 80. In the case of solid sarcoma 180, the tumors were removed on day 9 after transplantation and weighted to an accuracy of ±1 mg. From tumor weights of treated and control animals, the T/C ratios were calculated as follows: [formula]
# [3] = system: ascitic Sarcoma 180; assay: Activity against ascitic Sarcoma 180; format: in vivo, female NMRI mice; conditions: for MST (mean survival time): mean (range); for Survivors/Animals Treated: day 80
# Text: Each animal obtained about 10^7 tumor cells.
# Every day occuring deaths were noted.
# [4] = system: B16 Melanoma; assay: Activity against B16 Melanoma; format: in vivo, female B6 D2 F1 mice; conditions: day 10
# Procedure: as §1, §2, §3, §4, §5
# [5] = system: Ehrlich ascites tumor; assay: Activity against Ehrlich Ascites Tumor; format: in vivo, Female CF1 mice; conditions: single i.p. dose, 24 h after tumor inoculation
# Procedure: Female CF1 mice are each given about 6×10^6 Ehrlich ascites tumor cells by means of intraperitoneal injection and, 24 hours later, a single intraperitoneal dose of substance dose range of 20 to 500 mg/kg) in physiological saline solution (0.4 ml). In each case 5 to 10 animals are tested per dose. If appropriate, the preparation can be buffered to a pH of 4 to 7, for example with sodium bicarbonate or tris-(hydroxymethyl)-aminomethane, in order to avoid local irritation at the injection site. A group of untreated control animals which were injected intraperitoneally with 0.4 ml of physiological saline solution without administration of the substance is also run for each test series.
# The tumor development in the individual dose ranges is evaluated by means of the weight course and survival time. The dose-dependent number of tumor deaths, toxicity deaths and surviving, and the associated percentage increase in the average survival time are determined for each substance.
# [6] = system: Rectum Adenocarcinoma; assay: Activity against heterotransplanted human rectum adenocarcinoma; format: in vivo; conditions: day 25
# Procedure: (§6) The same testing procedure as in the tests with B16 melanoma and colon 38 carcinoma was employed. The test compounds were applied in equivalent and equitoxic doses, subdivided into five injections. The first injection was administered on day 8 (mammary carcinoma), day 10 (adenocarcinoma of rectum and lung) and day 26 (small cell lung carcinoma) of the tumor transplantation. The T/C values were determined 3 days after the last substance injection, i.e., on day 23 (mammary carcinoma), day 25 (adenocarcinoma of rectum and lung) and day 41 (small cell lung carcinoma).
# [7] = system: Lung Adenocarcinoma; assay: Activity against heterotransplanted human lung adenocarcinoma; format: in vivo; conditions: day 25
# Procedure: as §6
# [8] = system: Mammary Carcinoma; assay: Activity against heterotransplanted human mammary carcinoma; format: in vivo, human tumor xenograft tumor xenograft tumor xenograft; conditions: day 23
# Procedure: as §6
# [9] = system: Lung Small Cell Carcinoma; assay: Activity against heterotransplanted human small cell lung carcinoma; format: in vivo; conditions: day 41
# Procedure: as §6
molecule,measurement,setting,value
"O=C([O][Ti+2][O]C(=O)C(Cl)(Cl)Cl)C(Cl)(Cl)Cl.c1cc[cH-]c1.c1cc[cH-]c1 [Compound 4, Bis(trichloroacetato)bis(.eta.^5 -cyclopentadienyl)titanium(IV)]",T/C,[1]; 1 × 320 mg/kg i.p.,48%
same,T/C,[2]; 1 × 220 mg/kg,96%
same,Tumor Weight,[2]; 1 × 220 mg/kg,"1,14 ± 0,26 g"
same,T/C,[2]; 1 × 320 mg/kg,67%
same,Tumor Weight,[2]; 1 × 320 mg/kg,"0,79 ± 0,28 g"
same,T/C,[2]; 3 × 200 mg/kg,106%
same,Tumor Weight,[2]; 3 × 200 mg/kg,"1,26 ± 0,30 g"
same,Toxicity Deaths/Animals Treated,[2]; 3 × 300 mg/kg,1/5
same,T/C,[2]; 3 × 300 mg/kg,37%
same,Tumor Weight,[2]; 3 × 300 mg/kg,"0,44 ± 0,14 g"
same,ILS (increase in life span),[3]; 1 × 220 mg/kg,4%
same,MST (mean survival time),[3]; 1 × 220 mg/kg,"17,2 (15-20) d"
same,ILS (increase in life span),[3]; 1 × 320 mg/kg,96%
same,Survivors/Animals Treated,[3]; 1 × 320 mg/kg,1/5
same,MST (mean survival time),[3]; 1 × 320 mg/kg,"32,4 (18-80) d"
same,T/C,[4]; 1 × 320 mg/kg i.p.,85%
same,T/C,[4]; 3 × 300 mg/kg i.p.,41%
same,Optimal Treating Rate,[5],100%
same,Therapeutic Index (LD50/ED90),[5],"5,5"
"O=C(O)C=CC(=O)[O][Ti+2][O]C(=O)C=CC(=O)O.c1cc[cH-]c1.c1cc[cH-]c1 [Compound 3, Bis(hydrogenmaleinato)bis(.eta.^5 -cyclopentadienyl)titanium(IV)]",T/C,[1]; 1 × 120 mg/kg i.p.,72%
same,T/C,[1]; 3 × 100 mg/kg i.p.,50%
same,T/C (based on mean relative volume of tumor),[6]; 5 × 30 mg/kg,89%
same,T/C,[2]; 1 × 80 mg/kg,95%
same,Tumor Weight,[2]; 1 × 80 mg/kg,"1,13 ± 0,18 g"
same,T/C,[2]; 1 × 120 mg/kg,73%
same,Tumor Weight,[2]; 1 × 120 mg/kg,"0,87 ± 0,41 g"
same,T/C,[2]; 3 × 60 mg/kg,76%
same,Tumor Weight,[2]; 3 × 60 mg/kg,"0,91 ± 0,25 g"
same,T/C,[2]; 3 × 100 mg/kg,53%
same,Tumor Weight,[2]; 3 × 100 mg/kg,"0,63 ± 0,14 g"
same,ILS (increase in life span),[3]; 1 × 80 mg/kg,95%
same,Survivors/Animals Treated,[3]; 1 × 80 mg/kg,1/5
same,MST (mean survival time),[3]; 1 × 80 mg/kg,"32,2 (15-80) d"
same,ILS (increase in life span),[3]; 1 × 120 mg/kg,125%
same,Survivors/Animals Treated,[3]; 1 × 120 mg/kg,1/5
same,MST (mean survival time),[3]; 1 × 120 mg/kg,"37,2 (21-80) d"
same,T/C (based on mean relative volume of tumor),[7]; 5 × 30 mg/kg,35%
same,T/C,[4]; 1 × 120 mg/kg i.p.,89%
same,T/C,[4]; 3 × 100 mg/kg i.p.,50%
same,Optimal Treating Rate,[5],100%
same,Therapeutic Index (LD50/ED90),[5],"3,8"
same,T/C (based on mean relative volume of tumor),[8]; 5 × 30 mg/kg,40%
same,T/C (based on mean relative volume of tumor),[9]; 5 × 30 mg/kg,65%
Titanocene dibromide [reference compound],T/C,[1]; 1 × 60 mg/kg i.p.,36%
same,T/C,[1]; 3 × 50 mg/kg i.p.,51%
same,T/C (based on mean relative volume of tumor),[6]; 5 × 20 mg/kg,48%
same,T/C,[2]; 1 × 50 mg/kg,108%
same,Tumor Weight,[2]; 1 × 50 mg/kg,"1,27 ± 0,37 g"
same,T/C,[2]; 1 × 60 mg/kg,94%
same,Tumor Weight,[2]; 1 × 60 mg/kg,"1,21 ± 0,37 g"
same,T/C,[2]; 3 × 50 mg/kg,53%
same,Tumor Weight,[2]; 3 × 50 mg/kg,"0,69 ± 0,17 g"
same,Toxicity Deaths/Animals Treated,[2]; 3 × 60 mg/kg,1/5
same,T/C,[2]; 3 × 60 mg/kg,37%
same,Tumor Weight,[2]; 3 × 60 mg/kg,"0,48 ± 0,10 g"
same,ILS (increase in life span),"[3]; 1 × 50 mg/kg, group of 5",61%
same,MST (mean survival time),"[3]; 1 × 50 mg/kg, group of 5","28,4 (22-34) d"
same,ILS (increase in life span),[3]; 1 × 60 mg/kg,128%
same,Survivors/Animals Treated,[3]; 1 × 60 mg/kg,1/5
same,MST (mean survival time),[3]; 1 × 60 mg/kg,"40,2 (20-80) d"
same,T/C (based on mean relative volume of tumor),[7]; 5 × 20 mg/kg,53%
same,T/C,[4]; 1 × 60 mg/kg i.p.,42%
same,T/C,[4]; 3 × 50 mg/kg i.p.,48%
same,T/C,[4]; 3 × 60 mg/kg i.p.,44%
same,T/C (based on mean relative volume of tumor),[8]; 5 × 20 mg/kg,44%
same,T/C (based on mean relative volume of tumor),[9]; 5 × 20 mg/kg,96%
"Cl.Cl.Nc1ccc([S][Ti]([S]c2ccc(N)cc2)([CH]2C=CC=C2)[CH]2C=CC=C2)cc1 [Compound 1, Bis(p-aminothiophenolato)bis(.eta.^5 -cyclopentadienyl)titanium(IV)-dihydrochloride]",T/C,[1]; 1 × 100 mg/kg i.p.,61%
same,T/C,[1]; 3 × 60 mg/kg i.p.,38%
same,T/C,[2]; 1 × 60 mg/kg,109%
same,Tumor Weight,[2]; 1 × 60 mg/kg,"1,30 ± 0,30 g"
same,T/C,[2]; 1 × 100 mg/kg,86%
same,Tumor Weight,[2]; 1 × 100 mg/kg,"1,03 ± 0,26 g"
same,T/C,[2]; 3 × 60 mg/kg,39%
same,Tumor Weight,[2]; 3 × 60 mg/kg,"0,47 ± 0,12 g"
same,ILS (increase in life span),[3]; 1 × 60 mg/kg,15%
same,ILS (increase in life span),[3]; 1 × 100 mg/kg,139%
same,Survivors/Animals Treated,[3]; 1 × 100 mg/kg,1/5
same,MST (mean survival time),[3]; 1 × 100 mg/kg,"39,4 (19-80) d"
same,T/C,[4]; 1 × 100 mg/kg i.p.,80%
same,T/C,[4]; 3 × 60 mg/kg i.p.,36%
same,Optimal Treating Rate,[5],100%
same,Therapeutic Index (LD50/ED90),[5],"4,3"
"Cl.Nc1ccc([S][Ti]([Cl])([CH]2C=CC=C2)[CH]2C=CC=C2)cc1 [Compound 2, p-aminothiophenolato-chloro-bis(.eta.^5 -cyclopentadienyl)titanium(IV)-hydrochloride]",Optimal Treating Rate,[5],100%
same,Therapeutic Index (LD50/ED90),[5],"4,4"
titanocene dichloride [reference compound],T/C,[1]; 1 × 50 mg/kg i.p.,41%
same,T/C,[1]; 3 × 40 mg/kg i.p.,28%
same,T/C (based on mean relative volume of tumor),[6]; 5 × 15 mg/kg,38%
same,T/C,[2]; 1 × 40 mg/kg,111%
same,Tumor Weight,[2]; 1 × 40 mg/kg,"1,31 ± 0,24 g"
same,T/C,[2]; 1 × 50 mg/kg,66%
same,Tumor Weight,[2]; 1 × 50 mg/kg,"0,78 ± 0,34 g"
same,T/C,[2]; 3 × 40 mg/kg,58%
same,Tumor Weight,[2]; 3 × 40 mg/kg,"0,75 ± 0,32 g"
same,T/C,[2]; 3 × 50 mg/kg,23%
same,Tumor Weight,[2]; 3 × 50 mg/kg,"0,29 ± 0,14 g"
same,ILS (increase in life span),"[3]; 1 × 40 mg/kg, group of 5",81%
same,Survivors/Animals Treated,"[3]; 1 × 40 mg/kg, group of 5",1/5
same,MST (mean survival time),"[3]; 1 × 40 mg/kg, group of 5","32,0 (18-80) d"
same,ILS (increase in life span),"[3]; 1 × 40 mg/kg, group of 6",32%
same,MST (mean survival time),"[3]; 1 × 40 mg/kg, group of 6","27,3 (20-49) d"
same,ILS (increase in life span),"[3]; 1 × 50 mg/kg, group of 5",184%
same,Survivors/Animals Treated,"[3]; 1 × 50 mg/kg, group of 5",2/5
same,MST (mean survival time),"[3]; 1 × 50 mg/kg, group of 5","50,0 (25-80) d"
same,ILS (increase in life span),"[3]; 1 × 50 mg/kg, group of 6",161%
same,Survivors/Animals Treated,"[3]; 1 × 50 mg/kg, group of 6",3/6
same,MST (mean survival time),"[3]; 1 × 50 mg/kg, group of 6","54,0 (25-80) d"
same,T/C (based on mean relative volume of tumor),[7]; 5 × 15 mg/kg,34%
same,T/C,[4]; 1 × 50 mg/kg i.p.,61%
same,T/C,[4]; 3 × 40 mg/kg i.p.,69%
same,T/C,[4]; 3 × 50 mg/kg i.p.,37%
same,Optimal Treating Rate,[5],90-100%
same,Therapeutic Index (LD50/ED90),[5],"3,3"
same,T/C (based on mean relative volume of tumor),[8]; 5 × 15 mg/kg,49%
same,T/C (based on mean relative volume of tumor),[9]; 5 × 15 mg/kg,110%
